Measurements reported in US20250163048A1 (Tango Therapeutics, Inc., priority 2022, published 2025).
Where two headings read alike, the source gives them in different places.

Assays:
MTAP-deleted cell line = assay: viability assay for the MTAP-deleted cell line; type: cell-based; conditions: Homo sapiens, HAP1, viability assay
[1] = tested on: HAP1 MTAP-deleted cell line; assay: SDMA in-cell western assay, HAP1 MTAP-deleted; conditions: for IC50 / IC90: Homo sapiens; for Hap1 MTAP intact/deleted ratio: IC50 ratio between HAP1 MTAP-intact and HAP1 MTAP-deleted cell line
[2] = tested on: HAP1 MTAP-intact cell line; assay: SDMA in-cell western assay, HAP1 MTAP-intact
[3] = HAP1, read-out: Hap1 MTAP deleted IC50, SDMA in-cell western, HAP1 MTAP-deleted cell line
[4] = HAP1, read-out: Hap1 MTAP deleted IC90, SDMA in-cell western, HAP1 MTAP-deleted cell line
[5] = Homo sapiens, HAP1, read-out: Hap1 MTAP intact IC50, SDMA in-cell western, HAP1 MTAP-intact cell line
[6] = HAP1, read-out: Hap1 MTAP deleted IC50, SDMA in-cell western assay, HAP1 MTAP-deleted cell line
[7] = HAP1, read-out: Hap1 MTAP deleted IC90, SDMA in-cell western assay, HAP1 MTAP-deleted cell line
[8] = Homo sapiens, HAP1, read-out: Hap1 MTAP intact IC50, SDMA in-cell western assay, HAP1 MTAP-intact cell line

Compound	IC50 [1, 3] [nM]	IC90 [1, 4] [nM]	IC50 [2, 5] [nM]	IC50 [1, 6] [nM]	IC90 [1, 7] [nM]	IC50 ([2]; read-out: Hap1 MTAP intact IC50, SDMA in-cell western assay, HAP1 MTAP-intact cell line) [nM]	IC50 [2, 8] [nM]	IC50 (MTAP-deleted cell line) [nM]	Hap1 MTAP intact/deleted ratio ([1]; SDMA in-cell western)	Hap1 MTAP intact/deleted ratio ([1]; SDMA in-cell western assay)
C[C@H]1CC[C@H](c2cccc(OCCN(C)C)c2)N(C(=O)C(=O)Nc2cnc(N)c3cn[nH]c23)C1 [Compound 166, N-(4-amino-1H-pyrazolo[4,3-c]pyridin-7-yl)-2-((2R,5S)-2-(3-(2-(dimethylamino)ethoxy)phenyl)-5-methylpiperidin-1-yl)-2-oxoacetamide]	< 5	< 75	5 to 50					< 100	C (“C” indicates an IC50 ratio of less than 15 fold)	
CN(C)c1cccc(C2CCCCN2C(=O)C(=O)Nc2cnc(N)c3cn[nH]c23)c1 (single isomer, unassigned) [Compound 256]				5 to 50	> 125	> 50		100 to 1000		A (“A” indicates an IC50 ratio greater than or equal to 30 fold)
C[C@H]1CC[C@H](c2ccc3cn(C4CCOCC4)nc3c2)N(C(=O)C(=O)Nc2cncc3cn[nH]c23)C1 [Compound 130, 2-oxo-N-(1H-pyrazolo[4,3-c]pyridin-7-yl)-2-[(2R,5S)-5-methyl-2-(2-tetrahydropyran-4-ylindazol-6-yl)-1-piperidyl]acetamide]	< 5	75 to 125	> 50					< 100	A (“A” indicates an IC50 ratio greater than or equal to 30 fold)	
C[C@H]1CC[C@H](c2ccc3nn([C@@H]4CCN(C)C4)cc3c2)N(C(=O)C(=O)Nc2cncc3cn[nH]c23)C1 [Compound 36, 2-oxo-N-(1H-pyrazolo[4,3-c]pyridin-7-yl)-2-[(2R,5S)-5-methyl-2-[2-[(3R)-1-methylpyrrolidin-3-yl]indazol-5-yl]-1-piperidyl]acetamide]	< 5	75 to 125	> 50					100 to 1000	A (“A” indicates an IC50 ratio greater than or equal to 30 fold)	
C[C@H]1CC[C@H](c2cccc3c2OCC3)N(C(=O)C(=O)Nc2cnc(N)c3cn[nH]c23)C1 (racemic) [Compound 255, N-(4-Amino-1H-pyrazolo[4,3-c]pyridin-7-yl)-2-oxo-2-[rac-(2R,5S)-2-(2,3-dihydrobenzofuran-7-yl)-5-methyl-1-piperidyl]acetamide]				< 5	< 75		5 to 50	< 100		B (“B” indicates an IC50 ratio greater than or equal to 15 fold but lower than 30 fold)
C[C@H]1CC[C@H](c2ccnc(OC3CC3)c2)N(C(=O)C(=O)Nc2cnc(N)c3cn[nH]c23)C1 (racemic) [Compound 247, N-(4-Amino-2H-pyrazolo[4,3-c]pyridin-7-yl)-2-oxo-2-[rac-(2R,5S)-2-[2-(cyclopropoxy)-4-pyridyl]-5-methyl-1-piperidyl]acetamide]				< 5	< 75		5 to 50	< 100		B (“B” indicates an IC50 ratio greater than or equal to 15 fold but lower than 30 fold)
C[C@H]1CC[C@H](c2ccc3sc(C4CC(C)(C)N(C)C(C)(C)C4)nc3c2)N(C(=O)C(=O)Nc2ccn3ccnc3c2)C1 [Compound 67, N-(imidazo[1,2-a]pyridin-7-yl)-2-((2R,5S)-5-methyl-2-(2-(1,2,2,6,6-pentamethylpiperidin-4-yl)benzo[d]thiazol-5-yl)piperidin-1-yl)-2-oxoacetamide]	< 5	< 75	5 to 50					< 100	B (“B” indicates an IC50 ratio greater than or equal to 15 fold but lower than 30 fold)	
C[C@H]1CC[C@H](c2ccc(OC3CCN(C)CC3)cc2)N(C(=O)C(=O)Nc2cnc(N)c3cn[nH]c23)C1 [Compound 175, N-(4-amino-1H-pyrazolo[4,3-c]pyridin-7-yl)-2-((2R,5S)-5-methyl-2-(4-((1-methylpiperidin-4-yl)oxy)phenyl)piperidin-1-yl)-2-oxoacetamide]	5 to 50	< 75	> 50					< 100	B (“B” indicates an IC50 ratio greater than or equal to 15 fold but lower than 30 fold)	
C[C@H]1CC[C@H](c2ccc3cn([C@@H]4CCN(C)C4)nc3c2)N(C(=O)C(=O)Nc2cncc3cn[nH]c23)C1 [Compound 141, 2-((2R,5S)-5-methyl-2-(2-((R)-1-methylpyrrolidin-3-yl)-2H-indazol-6-yl)piperidin-1-yl)-2-oxo-N-(1H-pyrazolo[4,3-c]pyridin-7-yl)acetamide]	< 5	< 75	> 50					< 100	A (“A” indicates an IC50 ratio greater than or equal to 30 fold)	
C[C@H]1CC[C@H](c2ccc3nn(C4CC(C)(C)N(C)C(C)(C)C4)cc3c2)N(C(=O)C(=O)Nc2cncc3cn[nH]c23)C1 [Compound 47, 2-oxo-N-(1H-pyrazolo[4,3-c]pyridin-7-yl)-2-[(2R,5S)-5-methyl-2-[2-(1,2,2,6,6-pentamethyl-4-piperidyl)indazol-5-yl]-1-piperidyl]acetamide]	< 5	< 75	5 to 50					< 100	B (“B” indicates an IC50 ratio greater than or equal to 15 fold but lower than 30 fold)	
C[C@H]1CC[C@H](c2ccc3sc(CC4(C)CCN(C)CC4)nc3c2)N(C(=O)C(=O)Nc2cncc3cn[nH]c23)C1 [Compound 142, 2-((2R,5S)-2-(2-((1,4-dimethylpiperidin-4-yl)methyl)benzo[d]thiazol-5-yl)-5-methylpiperidin-1-yl)-2-oxo-N-(1H-pyrazolo[4,3-c]pyridin-7-yl)acetamide]	< 5	< 75	5 to 50					< 100	B (“B” indicates an IC50 ratio greater than or equal to 15 fold but lower than 30 fold)	
C[C@H]1CC[C@H](c2ccc3sc(C45CCC(CC4)N(C)C5)nc3c2)N(C(=O)C(=O)Nc2cncc3cn[nH]c23)C1 [Compound 54, 2-((2R,5S)-5-methyl-2-(2-(2-methyl-2-azabicyclo[2.2.2]octan-4-yl)benzo[d]thiazol-5-yl)piperidin-1-yl)-2-oxo-N-(1H-pyrazolo[4,3-c]pyridin-7-yl)acetamide]	< 5	< 75	5 to 50					< 100	B (“B” indicates an IC50 ratio greater than or equal to 15 fold but lower than 30 fold)	
C[C@@H]1CC[C@@H](c2ccnn2C)N(C(=O)C(=O)Nc2cnc(N)c3cn[nH]c23)C1 (racemic) [Compound 115, N-(4-amino-1H-pyrazolo[4,3-c]pyridin-7-yl)-2-(rac-(2S,5R)-5-methyl-2-(1-methyl-1H-pyrazol-5-yl)piperidin-1-yl)-2-oxoacetamide]	< 5	< 75	> 50					< 100	A (“A” indicates an IC50 ratio greater than or equal to 30 fold)	

Continued, in another order:

IC50 [1, 3] [nM]	IC90 [1, 4] [nM]	IC50 [2, 5] [nM]	IC50 [1, 6] [nM]	IC90 [1, 7] [nM]	IC50 ([2]; read-out: Hap1 MTAP intact IC50, SDMA in-cell western assay, HAP1 MTAP-intact cell line) [nM]	IC50 [2, 8] [nM]	Compound	IC50 (MTAP-deleted cell line) [nM]	Hap1 MTAP intact/deleted ratio ([1]; SDMA in-cell western)	Hap1 MTAP intact/deleted ratio ([1]; SDMA in-cell western assay)
< 5	< 75	5 to 50					COc1cc([C@H]2CC[C@H](C)CN2C(=O)C(=O)Nc2cnc(N)c3cn[nH]c23)ccn1 [Compound 145, N-(4-amino-1H-pyrazolo[4,3-c]pyridin-7-yl)-2-oxo-2-[(2R,5S)-2-(2-methoxy-4-pyridyl)-5-methyl-1-piperidyl]acetamide]	< 100	B (“B” indicates an IC50 ratio greater than or equal to 15 fold but lower than 30 fold)	
			< 5	< 75		5 to 50	COc1ncc([C@H]2CC[C@H](C)CN2C(=O)C(=O)Nc2cnc(N)c3cn[nH]c23)cc1C (racemic) [Compound 246, N-(4-Amino-1H-pyrazolo[4,3-c]pyridin-7-yl)-2-oxo-2-[rac-(2R,5S)-2-(6-methoxy-5-methyl-3-pyridyl)-5-methyl-1-piperidyl]acetamide]	< 100		B (“B” indicates an IC50 ratio greater than or equal to 15 fold but lower than 30 fold)
			5 to 50	> 125		> 50	COc1cc([C@@H]2CC[C@H](C)CN2C(=O)C(=O)Nc2cnc(N)c3cn[nH]c23)ccn1 [Compound 274]	100 to 1000		B (“B” indicates an IC50 ratio greater than or equal to 15 fold but lower than 30 fold)
			< 5	< 75		5 to 50	C[C@H]1CC[C@H](c2ccc3sc(C4CCC(N(C)C)CC4)nc3c2)N(C(=O)C(=O)Nc2cnc(N)c3cn[nH]c23)C1 (mixture of isomers) [Compound 212, N-(4-Amino-1H-pyrazolo[4,3-c]pyridin-7-yl)-2-oxo-2-[rac-(2R,5S)-2-[2-[4-(dimethylamino)cyclohexyl]-1,3-benzothiazol-5-yl]-5-methyl-1-piperidyl]acetamide]	< 100		C (“C” indicates an IC50 ratio of less than 15 fold)
< 5	< 75	5 to 50					Cc1nc2cc([C@H]3CC[C@H](C)CN3C(=O)C(=O)Nc3cnc(N)c4cn[nH]c34)ccc2s1 [Compound 181, N-(4-amino-1H-pyrazolo[4,3-c]pyridin-7-yl)-2-((2R,5S)-5-methyl-2-(2-methylbenzo[d]thiazol-5-yl)piperidin-1-yl)-2-oxoacetamide]	< 100	C (“C” indicates an IC50 ratio of less than 15 fold)	
